US20240228536A1, “PEPTIDES FOR USE IN SKIN AND HAIR PIGMENTATION” (Follicum AB, priority 2020, published 2024)

Experiments:
skin equivalents (SEs) = experiment: H&E and Warthin Starry staining of skin equivalents; format: cell-based, human; details: day 20
Description: Two skin equivalents (SEs) were used from one donor.
The analysis was achieved using the Warthin Starry assay using our recently published method (Joly-Tonetti et al 2016) and hematoxylin&eosin (H&E) staining.
The SEs were stained with Warthin Starry stain to visualise and quantify the melanin in sections. The SEs were removed from culture on day 20 and washed in PBS. They were then flash frozen in liquid nitrogen and mounted in OCT for sectioning. 10 μm sections were cut using a cryostat, the sections collected on slides and fixed in Acetone for 10 mins. The OCT was removed from the section by washing in acidulated water for 20 mins. The slides were then incubated in 1% silver nitrate solution for 1 hour at 43° C. […] The slides were stained for 2 mins then the staining was stopped by running the slides under hot tap water. Slides were then mounted using Histomount. Brightfield images were captured using a Nikon Eclipse microscope. Image analysis of the melanin density in sections was performed using Image J and densitometric thresholding. Results are presented in pixel intensity units. For the hematoxylin&eosin (H&E) staining, the SEs were flash frozen, sectioned and fixed as above. The slides were then washed in dH2O to remove the OCT for 20 mins. Haematoxylin was filtered using filter paper into a Coplin jar. Further Coplin jars were also prepared containing the following: Tap Water, Scott's Tap Water, 0.25% Eosin, 50% Ethanol, 70% Ethanol, 90% Ethanol, Ethanol and Histoclear. The slides were then placed into Haematoxylin for 2 mins, and then placed into tap water for 30 secs, Scott's Tap Water for 1 min & Eosin for 2 mins. The slides were then dehydrated through the Ethanol (1 min each) then placed into Histoclear for 2 mins and mounted using Histomount. Brightfield images were captured using a Nikon Eclipse microscope.

[1] = Stability study of compositions comprising peptides 1 and 4 (HPLC purity); format: physicochemical; details: water-free formulations A, B and C, 20° C., 12 weeks
Description: Samples of the separate formulations were stored at 20° C. […] Analysis of peptide purity in ointment and PBS solutions was performed using standard HPLC-UV-DA methods when the samples were freshly prepared (time 0) and after 1, 2, 6, 8 and 12 weeks.

Melanoderm SEs = experiment: Warthin-Starry silver staining of melanin granules in Melanoderms; format: cell-based, human; details: in formulation B at all three concentrations (0.4%, 1%, 2%), 7 days, compared to formulation only
Description: Tissue from each Melanoderm of Example 13 was carefully cut from inserts using a sterile scalpel blade (no. 11) and cut in half. One half was submerged overnight at −20° C. in RNAlater solution (Qiagen, UK) for RNA stabilization. The following day excess RNAlater solution was removed, and samples stored at −80° C. until RNA extracted for qPCR. The second half of each tissue was fixed overnight in 10% neutral buffered formalin then processed for wax embedding, sectioning, and Warthin-Starry staining.
All reagents used were of research grade quality and obtained from Sigma, UK. For silver staining high purity photo-grade (>99%) Silver nitrate was used. All reagents were prepared in acidulated (citrulated) distilled water (approx. 1 ml/L of 1% Citric acid was added to distilled water to change the pH to 3.4). Other equipment used were two water baths pre-set at 43° C. and 54° C., plastic staining tubs and slide racks for incubating slides, magnetic stirrers, and calibrated pH meter.
Melanin in tissue sections was stained using the modified Warthin-Starry staining method (Warthin, A. et al., Am. J. Syph. (1920) 4:97-103; Warkel, R. et al., Am. J. Clin. Path. (1980) 73 June (6): 812-5.). Briefly, 7 μm tissue sections were cut from wax blocks and floated onto charged slides (Leica Xtra clipped corner glass slides). […]

PMEL = experiment: qPCR expression analysis of melanogenesis markers in Melanoderm SEs; format: cell-based, human; details: 0.4% in formulation B, day 7, against formulation B treatment only (p=0.015, t-test)
Description: (§1) RNA stabilized Melanoderm tissue from Example 13 was thawed on ice RNA extracted using the RNeasy extraction kit (Qiagen, UK) according to manufacturer's instructions.
(§2) To ensure efficient lysis, tissue was ground in lysis buffer in a RNase-free 1.5 ml centrifuge tube using a sterile microbiological colony picker then passed through a Qiashredder column (Qiagen, UK) before lysate was purified. To prevent carry over of gDNA to qPCR, on-column digestion using 80 μl of DNase enzyme was added (DNase on column digestion kit, Sigma, UK). RNA was eluted in a 50 μl volume of sterile elution buffer and stored at −80° C. until use. For cDNA reverse transcription 8 μl of RNA was added as template in a 20 μl final volume in a 96-well plate using the iScript Advanced cDNA Synthesis Kit for RT-qPCR (Bio-Rad, UK) according to manufacturer's instructions. Low profile 96-well PCR plates and seals for qPCR reactions were obtained from Thermofisher. For qPCR 1 μl of cDNA from each test sample and relevant controls were amplified in a 96-well plate using SsoAdvanced Universal SYBR® Green Supermix and target pigmentation specific gene primers (pigment cell-specific pre-melanosomal protein (PMEL), Tyrosinase-related protein-1 (TYRP-1) and Tyrosinase (TYR)) in a 20 μl final reaction volume. Prevalidated primers, templates and gDNA controls were sourced from Bio-Rad, UK. Prevalidated template cDNA was included as a positive control for each gene tested. Ribosomal protein-20 (RPS20) was used as a housekeeping gene control. Samples were amplified using an Applied Biosystems StepOne Plus qPCR machine and associated software. Differences in fold gene expression between treatments and untreated controls were calculated from RPS20 reference gene normalised Ct values using the ΔΔCt method (2-(ΔΔCt)). Final expression values were log 10 transformed prior to statistical analysis (unpaired t-test) using Prism software.

TYRP-1 = experiment: as above; format: cell-based, human; details: 0.4% in formulation B, day 7, against formulation B only (p=0.005, t-test)
Description: as §1, §2

Tyrosinase (TYR) = experiment: as above; format: cell-based, human; details: 0.4% in formulation B, day 7, compared to formulation B only (p=0.027, t-test)
Description: as §1, §2

Row | relative expression of Tyrosinase (TYR) (qPCR) (Tyrosinase (TYR)) | Substance | melanin content and distribution in SE sections (Warthin Starry) (skin equivalents (SEs); second donor (FIG. 3B-D)) | stability (peptide purity by HPLC) [1] | melanin in epidermal layers (Warthin-Starry) (Melanoderm SEs) | melanin content and distribution in SE sections (Warthin Starry) (skin equivalents (SEs); one of the donors (FIG. 3A)) | relative expression of PMEL (qPCR) (PMEL) | relative expression of TYRP-1 (qPCR) (TYRP-1)
1 |  | Asn-Ala-His-Met (NAHM; (1)..(4) Peptide 1) | visibly increased melanin content | stable | modest increase in melanin in the basal and stratum spinosum layers |  |  | 
2 | significant increase in expression | Asn-Ala-Ala-Met (NAAM; (1)..(4) Peptide 4) | visibly increased melanin content |  | greater increase in melanin in all layers of the epidermis | increased the melanin content in the SEs across all layers | greatest increase in expression which was significant | moderately significant increase in expression
